Data on one molecule can be found in paper PMC3912202 (2014).

Test [1] deals with single stranded polyriboadenylic acid (ss poly-A) (RNA, polymer) A. In words: absorption titration, Scatchard, McGhee-von Hippel fit. The settings on record: 10 mM Na+; 10 mM citrate-phosphate buffer, pH 7.0, 20°C; intrinsic constant, per nucleotide; per base.
Test [2] shares this test system. As to the kind of experiment: fluorescence titration, Scatchard, McGhee-von Hippel fit. The settings on record: 10 mM Na+; 10 mM citrate-phosphate buffer, pH 7.0, 20°C; intrinsic constant, per nucleotide; per base.
In test [3] the test system is double stranded polyriboadenylic acid (ds poly-A) (RNA, polymer) A. As to the kind of experiment: fluorescence titration. Particulars: 10 mM citrate-phosphate buffer, pH 4.5, 20°C; up to P/D 100 (510.50 µM ds poly-A, 5.0 µM ST).
Test [4] has the same test system. As to the kind of experiment: circular dichroism. The settings on record: 10 mM citrate-phosphate buffer, pH 4.5, 20°C; 100.0 µM ds poly-A, up to 55.60 µM ST. On the technique in general: Circular dichroism is the unequal absorption of left and right circularly polarised light.
Test [5] has the same test system. In words: absorption titration. The settings on record: 10 mM citrate-phosphate buffer, pH 4.5, 20°C; up to P/D 100 (301.09 µM ds poly-A, 3.05 µM ST).
Test [6] shares this test system. In words: thermal melting profile (CD). The settings on record: 10 mM citrate-phosphate buffer, pH 4.5; 100.0 µM ds poly-A, D/P 0.53; no change, transition around 74°C.

Turning to `Cc1cc2nc3cc(C)c(N)cc3[n+](-c3ccccc3)c2cc1N`, the “K′” value in test [1] is on record as 5.98±0.20 × 10^5 M^-1; in test [2], 6.15±0.20 × 10^5 M^-1. Besides, the binding result in test [3], in test [4], in test [5] and in test [6] was “no” each time.
